# Values of other authors in patent publication US20030187074A1, “Oral compositions for treatment of diabetes” (priority 2002, published 2003).
# Details: Physician's Desk Reference, 2001, page 2980
structure (smiles),measurement,value
CN(CCOc1ccc(CC2SC(=O)NC2=O)cc1)c1ccccn1 (stereo not shown) [rosiglitazone],half-life of elimination from the human body,3 to 4 h
